Measured values from patent US20100137449A1, “SUBSTITUTED 1,3-CYCLOPENTADIONE MULTI-TARGET PROTEIN KINASE MODULATORS OF CANCER, ANGIOGENESIS AND THE INFLAMMATORY PATHWAYS ASSOCIATED THEREWITH” (METAPROTEOMICS, LLC, priority 2007, published 2010).

How the values were obtained:
Assay in all cases: KinaseProfiler Assay
Flt3(h) = target: T1, Flt3(h) (Homo sapiens, UniProt P36888)
T1 sequence (P36888 27-993): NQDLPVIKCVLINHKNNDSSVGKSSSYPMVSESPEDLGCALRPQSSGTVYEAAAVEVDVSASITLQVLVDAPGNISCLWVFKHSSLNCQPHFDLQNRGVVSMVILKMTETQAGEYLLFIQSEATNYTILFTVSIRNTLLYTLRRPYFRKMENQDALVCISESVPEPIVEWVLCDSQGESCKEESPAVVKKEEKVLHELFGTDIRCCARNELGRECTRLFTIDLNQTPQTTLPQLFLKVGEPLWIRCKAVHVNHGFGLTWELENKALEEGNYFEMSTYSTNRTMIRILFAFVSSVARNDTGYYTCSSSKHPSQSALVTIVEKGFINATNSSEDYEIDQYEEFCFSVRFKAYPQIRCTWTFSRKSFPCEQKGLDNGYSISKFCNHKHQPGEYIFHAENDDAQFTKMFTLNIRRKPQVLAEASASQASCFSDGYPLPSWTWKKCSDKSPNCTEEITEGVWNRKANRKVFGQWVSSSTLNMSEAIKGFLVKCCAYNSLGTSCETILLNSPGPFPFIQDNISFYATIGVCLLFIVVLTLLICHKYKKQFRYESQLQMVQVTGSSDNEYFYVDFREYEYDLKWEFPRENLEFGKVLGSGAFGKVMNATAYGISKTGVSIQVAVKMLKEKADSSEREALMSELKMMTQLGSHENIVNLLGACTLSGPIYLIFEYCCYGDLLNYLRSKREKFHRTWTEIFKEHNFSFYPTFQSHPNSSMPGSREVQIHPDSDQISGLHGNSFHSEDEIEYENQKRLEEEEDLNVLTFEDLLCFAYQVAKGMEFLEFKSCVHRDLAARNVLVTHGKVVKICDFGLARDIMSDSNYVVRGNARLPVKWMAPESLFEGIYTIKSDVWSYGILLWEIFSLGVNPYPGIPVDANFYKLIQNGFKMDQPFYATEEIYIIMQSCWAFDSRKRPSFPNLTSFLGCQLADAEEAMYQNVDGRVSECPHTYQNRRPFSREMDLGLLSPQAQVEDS

PAK2(h) = PAK2(h) (Homo sapiens, UniProt Q13177)
Sequence of PAK2(h) (Q13177 whole entry): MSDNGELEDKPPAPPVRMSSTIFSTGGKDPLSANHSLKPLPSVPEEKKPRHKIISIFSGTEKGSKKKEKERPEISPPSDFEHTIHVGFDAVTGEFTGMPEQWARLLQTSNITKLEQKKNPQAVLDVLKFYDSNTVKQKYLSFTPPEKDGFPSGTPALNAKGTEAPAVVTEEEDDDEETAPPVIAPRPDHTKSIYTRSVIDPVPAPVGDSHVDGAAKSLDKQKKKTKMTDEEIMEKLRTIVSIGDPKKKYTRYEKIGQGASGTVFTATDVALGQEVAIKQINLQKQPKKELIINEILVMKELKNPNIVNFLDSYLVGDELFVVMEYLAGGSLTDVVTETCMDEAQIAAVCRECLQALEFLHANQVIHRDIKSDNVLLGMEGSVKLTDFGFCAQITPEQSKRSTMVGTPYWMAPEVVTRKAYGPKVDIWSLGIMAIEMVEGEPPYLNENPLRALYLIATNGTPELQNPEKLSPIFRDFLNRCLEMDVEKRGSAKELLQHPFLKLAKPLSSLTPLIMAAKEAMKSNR

NEK11(h) = target: T2, NEK11(h) (Homo sapiens, UniProt Q8NG66)
T2 sequence (Q8NG66 1-645): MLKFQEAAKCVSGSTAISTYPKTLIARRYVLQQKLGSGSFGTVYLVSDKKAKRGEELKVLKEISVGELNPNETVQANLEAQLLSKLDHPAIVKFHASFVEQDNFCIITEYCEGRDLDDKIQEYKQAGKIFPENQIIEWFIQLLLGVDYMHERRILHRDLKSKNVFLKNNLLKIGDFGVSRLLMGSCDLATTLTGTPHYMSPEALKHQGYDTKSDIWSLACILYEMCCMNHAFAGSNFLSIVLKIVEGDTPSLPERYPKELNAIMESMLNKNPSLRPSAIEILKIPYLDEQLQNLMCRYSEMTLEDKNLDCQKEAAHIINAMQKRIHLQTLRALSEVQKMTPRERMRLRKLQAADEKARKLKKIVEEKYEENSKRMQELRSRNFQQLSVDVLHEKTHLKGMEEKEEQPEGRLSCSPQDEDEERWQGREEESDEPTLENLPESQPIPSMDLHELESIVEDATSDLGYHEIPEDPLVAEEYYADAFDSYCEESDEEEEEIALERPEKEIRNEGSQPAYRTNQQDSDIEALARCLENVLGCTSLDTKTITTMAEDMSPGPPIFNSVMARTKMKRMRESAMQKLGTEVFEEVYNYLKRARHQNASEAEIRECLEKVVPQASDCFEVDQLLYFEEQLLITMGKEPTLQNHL

Fes(h) = Fes(h) (Homo sapiens, UniProt P07332)
Sequence of Fes(h) (P07332 whole entry): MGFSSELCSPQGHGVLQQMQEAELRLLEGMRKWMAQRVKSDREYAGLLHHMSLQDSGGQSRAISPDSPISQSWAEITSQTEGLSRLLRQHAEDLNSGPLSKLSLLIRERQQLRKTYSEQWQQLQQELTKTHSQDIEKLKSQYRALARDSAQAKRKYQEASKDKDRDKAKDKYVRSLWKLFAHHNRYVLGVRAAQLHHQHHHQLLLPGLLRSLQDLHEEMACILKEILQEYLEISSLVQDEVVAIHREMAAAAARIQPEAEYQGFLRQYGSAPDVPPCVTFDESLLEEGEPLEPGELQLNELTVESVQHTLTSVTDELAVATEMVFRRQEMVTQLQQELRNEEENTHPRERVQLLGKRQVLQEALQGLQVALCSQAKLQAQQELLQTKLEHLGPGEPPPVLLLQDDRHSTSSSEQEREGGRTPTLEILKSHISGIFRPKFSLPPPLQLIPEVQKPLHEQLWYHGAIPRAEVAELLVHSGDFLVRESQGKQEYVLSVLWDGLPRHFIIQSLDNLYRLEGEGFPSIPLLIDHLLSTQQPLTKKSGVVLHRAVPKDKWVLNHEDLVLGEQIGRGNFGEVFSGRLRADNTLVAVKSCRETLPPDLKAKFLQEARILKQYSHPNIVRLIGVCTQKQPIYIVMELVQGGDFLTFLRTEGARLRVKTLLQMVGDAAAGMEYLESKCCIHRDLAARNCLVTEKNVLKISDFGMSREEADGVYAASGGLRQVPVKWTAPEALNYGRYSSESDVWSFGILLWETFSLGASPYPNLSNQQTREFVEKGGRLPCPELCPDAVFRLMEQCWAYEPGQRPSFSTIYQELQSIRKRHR

cKit(h) = cKit(h) (Homo sapiens, UniProt P10721)
Sequence of cKit(h) (P10721 26-976): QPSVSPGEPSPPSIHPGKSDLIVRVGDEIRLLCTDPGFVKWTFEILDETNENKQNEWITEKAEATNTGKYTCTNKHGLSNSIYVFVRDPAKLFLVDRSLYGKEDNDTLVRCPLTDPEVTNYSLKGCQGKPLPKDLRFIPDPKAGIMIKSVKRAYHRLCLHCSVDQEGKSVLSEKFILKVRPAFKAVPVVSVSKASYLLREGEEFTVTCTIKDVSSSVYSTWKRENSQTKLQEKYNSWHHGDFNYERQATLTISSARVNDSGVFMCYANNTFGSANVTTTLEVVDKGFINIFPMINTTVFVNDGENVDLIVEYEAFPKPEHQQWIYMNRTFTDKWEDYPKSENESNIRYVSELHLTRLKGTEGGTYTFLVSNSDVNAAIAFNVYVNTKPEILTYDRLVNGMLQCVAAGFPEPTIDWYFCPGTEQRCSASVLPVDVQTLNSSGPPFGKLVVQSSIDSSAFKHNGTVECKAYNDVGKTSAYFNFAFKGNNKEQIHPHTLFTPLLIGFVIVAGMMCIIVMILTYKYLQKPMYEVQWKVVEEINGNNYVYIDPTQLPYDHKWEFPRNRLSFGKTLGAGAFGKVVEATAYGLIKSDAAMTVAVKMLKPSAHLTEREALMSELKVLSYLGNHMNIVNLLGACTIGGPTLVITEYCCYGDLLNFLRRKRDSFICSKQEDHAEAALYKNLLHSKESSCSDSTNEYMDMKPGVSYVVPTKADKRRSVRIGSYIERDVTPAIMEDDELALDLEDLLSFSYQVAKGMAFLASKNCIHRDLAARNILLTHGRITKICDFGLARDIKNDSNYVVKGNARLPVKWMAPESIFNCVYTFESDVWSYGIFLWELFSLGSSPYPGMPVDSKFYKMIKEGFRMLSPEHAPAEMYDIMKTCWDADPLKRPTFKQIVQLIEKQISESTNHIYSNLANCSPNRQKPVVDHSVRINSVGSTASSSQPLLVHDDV

EphA2(h) = EphA2(h) (Homo sapiens, UniProt P29317)
Sequence of EphA2(h) (P29317 24-976): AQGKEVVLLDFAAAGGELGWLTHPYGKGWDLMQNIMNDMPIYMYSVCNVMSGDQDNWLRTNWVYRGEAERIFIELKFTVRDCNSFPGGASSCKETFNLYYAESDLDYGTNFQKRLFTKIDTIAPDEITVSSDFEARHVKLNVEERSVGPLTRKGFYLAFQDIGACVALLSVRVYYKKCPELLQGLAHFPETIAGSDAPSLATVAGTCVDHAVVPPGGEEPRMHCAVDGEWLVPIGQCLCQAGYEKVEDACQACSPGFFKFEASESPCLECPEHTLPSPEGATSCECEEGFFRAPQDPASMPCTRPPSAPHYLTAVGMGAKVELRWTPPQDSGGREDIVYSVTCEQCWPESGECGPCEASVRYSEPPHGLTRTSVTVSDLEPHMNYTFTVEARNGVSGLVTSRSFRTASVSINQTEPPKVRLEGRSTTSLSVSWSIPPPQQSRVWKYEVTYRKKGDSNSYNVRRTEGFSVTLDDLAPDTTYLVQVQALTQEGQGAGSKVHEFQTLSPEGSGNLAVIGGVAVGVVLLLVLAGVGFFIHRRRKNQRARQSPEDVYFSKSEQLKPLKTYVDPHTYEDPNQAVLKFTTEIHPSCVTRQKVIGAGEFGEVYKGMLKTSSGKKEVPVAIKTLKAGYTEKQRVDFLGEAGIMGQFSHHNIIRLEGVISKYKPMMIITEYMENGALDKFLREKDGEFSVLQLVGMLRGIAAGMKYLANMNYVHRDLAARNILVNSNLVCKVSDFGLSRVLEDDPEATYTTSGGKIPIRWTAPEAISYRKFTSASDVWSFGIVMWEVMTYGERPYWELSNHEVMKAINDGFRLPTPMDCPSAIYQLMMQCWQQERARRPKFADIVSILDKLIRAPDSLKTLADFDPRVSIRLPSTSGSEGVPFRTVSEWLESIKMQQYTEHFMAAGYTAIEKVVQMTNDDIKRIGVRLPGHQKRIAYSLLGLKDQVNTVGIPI

Rsk4(h) = Rsk4(h) (Homo sapiens, UniProt Q9UK32)
Sequence of Rsk4(h) (Q9UK32 whole entry): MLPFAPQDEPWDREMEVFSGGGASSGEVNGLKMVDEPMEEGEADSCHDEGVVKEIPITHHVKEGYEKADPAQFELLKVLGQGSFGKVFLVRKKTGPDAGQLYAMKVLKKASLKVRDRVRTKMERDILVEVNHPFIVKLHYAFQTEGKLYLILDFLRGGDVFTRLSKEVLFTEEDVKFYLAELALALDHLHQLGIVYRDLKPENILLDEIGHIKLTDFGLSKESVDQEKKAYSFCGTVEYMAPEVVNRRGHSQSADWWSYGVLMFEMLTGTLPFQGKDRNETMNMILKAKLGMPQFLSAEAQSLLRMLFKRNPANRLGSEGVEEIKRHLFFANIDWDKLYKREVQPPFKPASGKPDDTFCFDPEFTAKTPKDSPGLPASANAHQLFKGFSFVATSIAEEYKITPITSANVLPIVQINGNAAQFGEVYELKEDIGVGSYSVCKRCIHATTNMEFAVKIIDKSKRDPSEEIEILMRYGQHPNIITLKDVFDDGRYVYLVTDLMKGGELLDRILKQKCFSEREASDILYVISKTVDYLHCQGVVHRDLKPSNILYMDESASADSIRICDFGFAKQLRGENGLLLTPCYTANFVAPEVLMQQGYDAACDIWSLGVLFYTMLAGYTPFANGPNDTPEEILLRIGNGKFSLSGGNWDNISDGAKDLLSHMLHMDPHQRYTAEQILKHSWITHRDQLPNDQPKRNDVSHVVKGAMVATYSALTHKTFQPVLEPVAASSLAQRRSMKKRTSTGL

SAPK2b(h) = SAPK2b(h) (Homo sapiens, UniProt Q15759)
Sequence of SAPK2b(h) (Q15759 whole entry): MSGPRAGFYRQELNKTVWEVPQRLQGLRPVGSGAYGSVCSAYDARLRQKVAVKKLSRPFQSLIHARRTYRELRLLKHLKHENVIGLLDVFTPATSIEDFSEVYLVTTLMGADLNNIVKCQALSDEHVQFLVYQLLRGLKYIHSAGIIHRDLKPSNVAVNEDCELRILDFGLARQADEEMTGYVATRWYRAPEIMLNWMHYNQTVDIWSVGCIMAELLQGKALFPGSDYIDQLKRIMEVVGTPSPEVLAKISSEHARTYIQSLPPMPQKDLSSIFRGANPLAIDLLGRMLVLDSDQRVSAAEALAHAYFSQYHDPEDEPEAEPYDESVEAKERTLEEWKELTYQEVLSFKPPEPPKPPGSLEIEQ

CC(C)CCC(=O)[C@]1(O)C(O)=C(C(=O)C(C)C)C(=O)[C@H]1CCC(C)C [TH2, tetrahydroiso-cohumulone]
kinase inhibition (Flt3(h); 1 μg/ml): 107% of control | kinase inhibition (Flt3(h); 5 μg/ml): 99% of control | kinase inhibition (Flt3(h); 25 μg/ml): 109% of control | kinase inhibition (Flt3(h); 50 μg/ml): 95% of control | kinase inhibition (Flt3(h); 100 μg/ml): 84% of control | kinase inhibition (PAK2(h); 1 μg/ml): 116% of control | kinase inhibition (PAK2(h); 5 μg/ml): 110% of control | kinase inhibition (PAK2(h); 25 μg/ml): 107% of control | kinase inhibition (PAK2(h); 50 μg/ml): 101% of control | kinase inhibition (PAK2(h); 100 μg/ml): 96% of control | kinase inhibition (NEK11(h); 1 μg/ml): 97% of control | kinase inhibition (NEK11(h); 5 μg/ml): 106% of control | kinase inhibition (NEK11(h); 25 μg/ml): 96% of control | kinase inhibition (NEK11(h); 50 μg/ml): 75% of control | kinase inhibition (NEK11(h); 100 μg/ml): 51% of control | kinase inhibition (Fes(h); 1 μg/ml): 140% of control | kinase inhibition (Fes(h); 5 μg/ml): 120% of control | kinase inhibition (Fes(h); 25 μg/ml): 105% of control | kinase inhibition (Fes(h); 50 μg/ml): 99% of control | kinase inhibition (Fes(h); 100 μg/ml): 86% of control | kinase inhibition (cKit(h); 1 μg/ml): 110% of control | kinase inhibition (cKit(h); 5 μg/ml): 87% of control | kinase inhibition (cKit(h); 25 μg/ml): 86% of control | kinase inhibition (cKit(h); 50 μg/ml): 96% of control | kinase inhibition (cKit(h); 100 μg/ml): 95% of control | kinase inhibition (EphA2(h); 1 μg/ml): 102% of control | kinase inhibition (EphA2(h); 5 μg/ml): 104% of control | kinase inhibition (EphA2(h); 25 μg/ml): 105% of control | kinase inhibition (EphA2(h); 50 μg/ml): 99% of control | kinase inhibition (EphA2(h); 100 μg/ml): 92% of control | kinase inhibition (Rsk4(h); 1 μg/ml): 79% of control | kinase inhibition (Rsk4(h); 5 μg/ml): 71% of control | kinase inhibition (Rsk4(h); 25 μg/ml): 47% of control | kinase inhibition (Rsk4(h); 50 μg/ml): 31% of control | kinase inhibition (Rsk4(h); 100 μg/ml): 17% of control | kinase inhibition (SAPK2b(h); 1 μg/ml): 117% of control | kinase inhibition (SAPK2b(h); 5 μg/ml): 110% of control | kinase inhibition (SAPK2b(h); 25 μg/ml): 108% of control | kinase inhibition (SAPK2b(h); 50 μg/ml): 108% of control | kinase inhibition (SAPK2b(h); 100 μg/ml): 111% of control
